Assay results reported in patent publication US20060252820A1, “Composition for oral administration containing alkylene dioxybenzene derivative” (priority 2003, published 2006).

Experiment: Conventional preparation of MKC-242 administered to a human
Type: in vivo
Conditions: conventional preparation (tablet) administered to a human

SMILES: Cl.c1ccc2c(c1)OC[C@H](CNCCCOc1ccc3c(c1)OCO3)O2 [MKC-242, 5-[3-[[(2S)-1,4-benzodioxan-2-ylmethyl]amino]propoxy]-1,3-benzodioxole hydrochloride]
- symptoms recognized (depending on drug concentration in plasma, all slight): nausea, dizziness, orthostatic syncope
- half-life (plasma, oral, read-out: half-life T1/2): 2 to 5 h
